Tests used:
[1] = target: signal regulatory protein a (SIRPα) (Homo sapiens, UniProt P78324); details: reported in Rodriguez et al., 2013; cited from earlier work
[2] = Ionizable cationic lipid in plasma, liver and spleen 24 hours after tLNP, LC/MS/MS; format: in vivo, cynomolgus macaques
Method: Samples were taken from cynomolgus macaques that had been intravenously administered either BF1 or F5 tLNPs (two each) at a dosage of 3 mg mRNA/kg in the preceding example. The tLNPs were conjugated to anti-CD5 mentioned in Example 2 as the targeting moiety. 24 hours after administration the animals were sacrificed and plasma, liver, and spleen tissue collected from two animals in each group and assessed by mass spectrometry for presence of these ionizable cationic lipids in order to assess biodegradability and biodistribution of these ionizable cationic lipids.
Briefly, plasma was stabilized for mass spectrometry by addition of 10 μL of formic acid per mL of K2EDTA plasma. Spleen and liver tissue were homogenized in 19 parts of homogenization buffer (50:40:10 0.1% formic acid in 1:1 methanol: acetone/10 mM ammonium formate with 0.2% formic acid/dimethylformamide (DMF)) to 1 part tissue (v/w) using a Geno/Grinder® (SPEX® SamplePrep) set to two minutes at 1500 rpms.
Calibration curves and quality control samples were prepared by spiking control matrix (plasma or homogenate) with CICL1 or ALC-0315 in DMF. The extraction was performed on wet ice by adding 300 μL of crashing solvent (0.1% formic acid in 1:1 methanol: acetonitrile) to 25 μL of sample to which 50 μL of internal standard was added (1:1 isopropyl alcohol: water). The extracts were mixed for four minutes at 1500 rpms and then centrifuged at 3000×g for ten minutes. 200 μL of supernatant was transferred to a clean 96 well plate for LC/MS/MS analysis.
Chromatography was performed on a Waters XBridge BEH C8 column (130 Å, 2.5 μm, 2.1×30 mm) using the following gradient. Mobile phase A (10 mM ammonium format in water with 0.2% formic acid) was held at 20% for 0.3 minutes before being reduced to 5% over 1.2 minutes. This condition was held for one minute before being returned to 80% B (0.1% formic acid in 1:1 methanol: acetonitrile) in 0.1 minutes. The column was then held at 80% B for 1.4 minutes. LC flow rate was held at 0.5 mL/min and the autosampler held at 2-8° C. The mass spectrum was obtained with a triple quadrupole apparatus using atmospheric pressure ionization (Sciex).
Quantitation was performed using a 1/X2 quadratic regression using the peak area for transition 1013.6→968.4 (CICL1) or 766.6→748.4 (ALC-0315) over peak area of transition 1040.6→995.4 of the internal standard.

[3] = Time course of ionizable cationic lipid (LC-MS) and mRNA (digital PCR) in plasma, spleen, liver; format: in vivo; details: mice; for plasma levels of lipid at 7 days: CD8-targeted tLNP F9 (CICL1) or BF1 (ALC-0315)
Method: To obtain more detailed data a similar experiment was conducted in mice where it was possible to obtain a time course of disappearance of the ionizable cationic lipid and the encapsulated mRNA as well. Mice were intravenously administered 2 mg/kg tLNP of composition BF1 (comprising ALC-0315) or F9 (comprising CICL1) targeted to mouse CD8 and encapsulating an anti-human CD19 CAR, and monitored through 7 days. At each timepoint, 3 mice were sacrificed, and liver, spleen, and plasma were processed for LC-MS-based detection of lipid concentration and digital PCR detection of the mRNA. In plasma, mRNA level was normalized to a known amount of mRNA spiked in a control. In spleen and liver mRNA level was normalized to mRNA for the housekeeping gene GAPDH.

[4] = 24 hours after BF1 tLNP, 3 mg mRNA/kg

Chain of signal regulatory protein a (SIRPα) (P78324 31-504): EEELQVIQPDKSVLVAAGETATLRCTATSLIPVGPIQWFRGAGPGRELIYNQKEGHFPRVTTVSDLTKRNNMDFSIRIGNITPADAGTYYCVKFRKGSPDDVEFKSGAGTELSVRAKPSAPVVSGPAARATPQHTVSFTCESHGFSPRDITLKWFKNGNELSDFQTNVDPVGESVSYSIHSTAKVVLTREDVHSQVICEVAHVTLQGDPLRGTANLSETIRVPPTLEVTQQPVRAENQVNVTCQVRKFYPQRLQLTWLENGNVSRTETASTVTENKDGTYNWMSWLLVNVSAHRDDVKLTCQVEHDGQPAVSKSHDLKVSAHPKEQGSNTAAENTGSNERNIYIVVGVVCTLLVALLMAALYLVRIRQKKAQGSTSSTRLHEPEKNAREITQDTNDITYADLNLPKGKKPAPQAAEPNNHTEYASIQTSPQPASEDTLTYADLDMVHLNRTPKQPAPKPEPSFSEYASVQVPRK

| concentration in liver, fold greater (reference not given) [2, 4] | concentration in spleen, fold greater (reference not given) [2, 4] [fold] | concentration in blood, fold greater than CICL1 ([2]; 24 hours after BF1 versus F5 tLNP, 3 mg mRNA/kg) | Molecule | binding affinity to SIRPα, fold stronger than full-length CD47 protein [1] [fold] | plasma levels of lipid at 7 days ([3]; 2 mg/kg i.v.) | lipid levels in spleen and liver ([3]; 2 mg/kg i.v., through 7 days) | concentrations in blood, liver, and spleen relative to each other ([2]; 24 hours after F5 tLNP, 3 mg mRNA/kg) [fold] | amount of lipid present in blood, liver, and spleen ([2]; 24 hours after F5 tLNP, 3 mg mRNA/kg i.v.) | liver concentration, fold less than for ALC-0315 ([2]; 24 hours, 3 mg mRNA/kg) | spleen concentration, fold less than for ALC-0315 ([2]; 24 hours, 3 mg mRNA/kg) [fold] | biodegradability ([2]; clearance data, at least at the initial step) | time after administration by which lipid levels were falling in the liver ([3]; 2 mg/kg F9 tLNP) [h] | time after administration by which lipid levels were falling in the spleen ([3]; 2 mg/kg F9 tLNP) [h] |
| --- | --- | --- | --- | --- | --- | --- | --- | --- | --- | --- | --- | --- | --- |
|  |  |  | NYTCEVTELSREGKTVIELK (SEQ ID NO: 3) [CD47 peptide] | 10 |  |  |  |  |  |  |  |  |  |
| approximately 14 fold | ~11 | about 6 fold | CCCCCCCCC(CCCCCC)C(=O)OCCCCCCN(CCCCO)CCCCCCOC(=O)C(CCCCCC)CCCCCCCC (centres unmarked) [ALC-0315, [(4-Hydroxybutyl)azanediyl]di(hexane-6,1-diyl)bis(2-hexyldecanoate), reference compound] |  | still detected | remained almost unchanged throughout the 7 days |  |  |  |  |  |  |  |
|  |  |  | CCCCCCCCC(=O)OCC(COC(=O)CCCCCCCC)CC(=O)OCCN(CCOC(=O)CC(COC(=O)CCCCCCCC)COC(=O)CCCCCCCC)C(=O)OCCN(C)C [CICL1] |  | returned to baseline |  | ≤ 2 | only very small amounts | approximately 127 fold | ~35 | much more biodegradable than ALC-0315 | ≤ 2 | ≤ 1 |
